What follows are molecules tested against IRAK4 (Homo sapiens (Human), UniProt Q9NWZ3) (assay: IRAK-4 AlphaScreen biochemical kinase assay). Conditions: 1 nM IRAK4, 1 mM ATP, 3.5 h at RT.
IRAK4, sequence (Q9NWZ3 whole entry, species assumed): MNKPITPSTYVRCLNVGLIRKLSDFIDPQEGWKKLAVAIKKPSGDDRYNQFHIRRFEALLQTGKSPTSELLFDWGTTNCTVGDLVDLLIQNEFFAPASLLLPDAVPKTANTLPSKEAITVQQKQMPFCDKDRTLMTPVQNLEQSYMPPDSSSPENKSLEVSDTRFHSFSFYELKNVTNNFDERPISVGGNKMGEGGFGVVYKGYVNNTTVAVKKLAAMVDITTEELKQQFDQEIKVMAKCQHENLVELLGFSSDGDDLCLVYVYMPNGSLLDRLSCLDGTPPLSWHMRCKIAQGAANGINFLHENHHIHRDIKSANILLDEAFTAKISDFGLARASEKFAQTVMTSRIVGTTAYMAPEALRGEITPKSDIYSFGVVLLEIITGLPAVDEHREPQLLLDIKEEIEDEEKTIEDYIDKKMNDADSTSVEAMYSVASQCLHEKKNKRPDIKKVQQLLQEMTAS
Description: The biochemical assay is in a AlphaScreen format. The kinase reaction is based on the IRAK-4 phosphorylation of a biotin labeled peptide. The phosphopeptide is incubated with anti-phosphothreonine antibody as well as streptavidin- and protein A-coated beads. Binding of the protein-A coated beads to the antibody and the streptavidin beads to the peptide, leads to an energy transfer from one bead to the other, ultimately producing a luminescent/fluorescent signal.
The compounds described herein were tested for in the above biochemical assay.
For `N#Cc1cc(-c2cncc(NC(=O)C(F)(F)F)c2)cc2c1cnn2-c1cccc(C(F)(F)F)n1` [Example 208, N-(5-(4-cyano-1-(6-(trifluoromethyl)pyridin-2-yl)-1H-indazol-6-yl)pyridin-3-yl)-2,2,2-trifluoroacetamide], the IC50 was > 10 µM. For `O=C1CCCc2ccc(-c3ccc4cnn(-c5cccc(C(F)(F)F)n5)c4c3)nc21` [Example 212, 2-(1-(6-(trifluoromethyl)pyridin-2-yl)-1H-indazol-6-yl)-6,7-dihydroquinolin-8(5H)-one], the IC50 was > 10 µM. With `CCC(N)c1cccc(-c2ccc3cnc(-c4cccc(C)n4)n3c2)n1` (stereo not drawn) [Example 275, 1-(6-(3-(6-methylpyridin-2-yl)imidazo[1,5-a]pyridin-6-yl)pyridin-2-yl)propan-1-amine] the IC50 was < 0.1 µM. In the case of `CCCC(N)c1cccc(-c2ccc3cnc(-c4cccc(C)n4)n3c2)n1` (stereo not drawn) [Example 276, 1-(6-(3-(6-methylpyridin-2-yl)imidazo[1,5-a]pyridin-6-yl)pyridin-2-yl)butan-1-amine], the IC50 is reported as < 0.1 µM. `CCC[C@H](N)c1cccc(-c2cc(N3CCCCC3)c3cnn(-c4cccc(CO)n4)c3c2)n1` [Example 324, (S)-(6-(6-(6-(1-aminobutyl)pyridin-2-yl)-4-(piperidin-1-yl)-1H-indazol-1-yl)pyridin-2-yl)methanol] was tested, and the IC50 was < 0.1 µM. With `CCC[C@H](N)c1cccc(-c2cc(C3=CCN(C)CC3)c3cnn(-c4cccc(CO)n4)c3c2)n1` [Example 423, (S)-(6-(6-(6-(1-aminobutyl)pyridin-2-yl)-4-(1-methyl-1,2,3,6-tetrahydropyridin-4-yl)-1H-indazol-1-yl)pyridin-2-yl)methanol] the IC50 was < 0.1 µM.
